# Experimental data taken from ChEMBL document CHEMBL1201861, “Genomics of Drug Sensitity in Cancer screening data, Wellcome Trust Sanger Institute”.
# Key:
# Experiment in all cases: cells
# [1] = system: COR-L23; format: functional, cell-based, Homo sapiens; conditions: Homo sapiens, COR-L23;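 note: cell viability assay measuring how strongly compounds suppress growth of COR-L23 cells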
# Description: SANGER: Inhibition of human COR-L23 cell growth in a cell viability assay.
# [2] = system: CaR-1; format: functional, cell-based, Homo sapiens; conditions: Homo sapiens, CaR-1;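 note: growth inhibition of human CaR-1 cancer cells, read out with a cell viability assay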
# Description: SANGER: Inhibition of human CaR-1 cell growth in a cell viability assay.
# [3] = system: D-502MG; format: functional, cell-based, Homo sapiens; conditions: Homo sapiens, D-502MG
# Description: SANGER: Inhibition of human D-502MG cell growth in a cell viability assay.
# [4] = system: DEL; format: functional, cell-based; conditions: Homo sapiens;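 note: growth inhibition of the human DEL cell line, read out with a cell viability assay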
# Description: SANGER: Inhibition of human DEL cell growth in a cell viability assay.
# [5] = system: DMS-273; format: functional, cell-based, Homo sapiens; conditions: Homo sapiens, DMS-273
# Description: SANGER: Inhibition of human DMS-273 cell growth in a cell viability assay.
# [6] = system: EW-1; format: functional, cell-based, Homo sapiens; conditions: Homo sapiens, EW-1;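 note: growth inhibition of the human EW-1 cell line, read out by a cell viability assay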
# Description: SANGER: Inhibition of human EW-1 cell growth in a cell viability assay.
# [7] = system: FaDu; format: functional, cell-based, Homo sapiens; conditions: Homo sapiens, FaDu;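 note: cell viability readout of growth inhibition in FaDu cells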
# Description: SANGER: Inhibition of human FADU cell growth in a cell viability assay.
# [8] = system: GCT; format: functional, cell-based, Homo sapiens; conditions: Homo sapiens, GCT;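 note: GCT cell line proliferation inhibition, read out with a cell viability assay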
# Description: SANGER: Inhibition of human GCT cell growth in a cell viability assay.
# [9] = system: GT3TKB; format: functional, cell-based, Homo sapiens; conditions: Homo sapiens, GT3TKB;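 note: growth inhibition of the cell line, read out with a cell viability assay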
# Description: SANGER: Inhibition of human GT3TKB cell growth in a cell viability assay.
# [10] = system: HCC1806; format: functional, cell-based, Homo sapiens; conditions: Homo sapiens, HCC1806;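 note: growth inhibition of the cancer cell line, determined with a cell viability assay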
# Description: SANGER: Inhibition of human HCC1806 cell growth in a cell viability assay.
# [11] = system: HCC1954; format: functional, cell-based, Homo sapiens; conditions: Homo sapiens, HCC1954;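 note: growth inhibition of human HCC1954 cells, read out with a cell viability assay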
# Description: SANGER: Inhibition of human HCC1954 cell growth in a cell viability assay.
# [12] = system: Huh-7; format: functional, cell-based, Homo sapiens; conditions: Homo sapiens, Huh-7;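 note: HuH-7 cell growth inhibition, read out with a cell viability assay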
# Description: SANGER: Inhibition of human HuH-7 cell growth in a cell viability assay.
# [13] = system: IST-MEL1; format: functional, cell-based, Homo sapiens; conditions: Homo sapiens, IST-MEL1;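 note: growth inhibition of the cell line, read out with a cell viability assay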
# Description: SANGER: Inhibition of human IST-MEL1 cell growth in a cell viability assay.
# [14] = system: IST-SL1; format: functional, cell-based, Homo sapiens; conditions: Homo sapiens, IST-SL1;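 note: growth inhibition of human IST-SL1 cells, read out with a cell viability assay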
# Description: SANGER: Inhibition of human IST-SL1 cell growth in a cell viability assay.
# [15] = system: KALS-1; format: functional, cell-based, Homo sapiens; conditions: Homo sapiens, KALS-1;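 note: growth inhibition of KALS-1 cells, determined with a cell viability assay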
# Description: SANGER: Inhibition of human KALS-1 cell growth in a cell viability assay.
# [16] = system: KOSC-2; format: functional, cell-based, Homo sapiens; conditions: Homo sapiens, KOSC-2;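 note: growth inhibition of KOSC-2 cells, read out by a cell viability assay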
# Description: SANGER: Inhibition of human KOSC-2 cell growth in a cell viability assay.
# [17] = system: KYSE-180; format: functional, cell-based, Homo sapiens; conditions: Homo sapiens, KYSE-180;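 note: growth inhibition of KYSE-180 cells, read out with a cell viability assay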
# Description: SANGER: Inhibition of human KYSE-180 cell growth in a cell viability assay.
# [18] = system: M14; format: functional, cell-based, Homo sapiens; conditions: Homo sapiens, M14;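 note: growth inhibition of M14 cells, read out with a cell viability assay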
# Description: SANGER: Inhibition of human M14 cell growth in a cell viability assay.
# [19] = system: MDA-MB-453; format: functional, cell-based, Homo sapiens; conditions: Homo sapiens, MDA-MB-453
# Description: SANGER: Inhibition of human MDA-MB-453 cell growth in a cell viability assay.
# [20] = system: ME-180; format: functional, cell-based; conditions: Homo sapiens;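 note: cell viability assay measuring growth inhibition of ME-180 cells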
# Description: SANGER: Inhibition of human ME-180 cell growth in a cell viability assay.
# [21] = system: MFM-223; format: functional, cell-based, Homo sapiens; conditions: Homo sapiens, MFM-223
# Description: SANGER: Inhibition of human MFM-223 cell growth in a cell viability assay.
# [22] = system: MHH-ES-1; format: functional, cell-based, Homo sapiens; conditions: Homo sapiens, MHH-ES-1;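 note: cell growth inhibition measured by a cell viability assay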
# Description: SANGER: Inhibition of human MHH-ES-1 cell growth in a cell viability assay.
# [23] = system: MMAC-SF; format: functional, cell-based, Homo sapiens; conditions: Homo sapiens, MMAC-SF;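 note: growth inhibition of human MMAC-SF cells, read out with a cell viability assay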
# Description: SANGER: Inhibition of human MMAC-SF cell growth in a cell viability assay.
# [24] = system: MS-1; format: functional, cell-based; conditions: Homo sapiens;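 note: growth inhibition of MS-1 cells, read out by cell viability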
# Description: SANGER: Inhibition of human MS-1 cell growth in a cell viability assay.
# [25] = system: NCI-H1304; format: functional, cell-based; conditions: Homo sapiens;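 note: growth inhibition of the cancer cell line, measured in a cell viability assay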
# Description: SANGER: Inhibition of human NCI-H1304 cell growth in a cell viability assay.
# [26] = system: NCI-H1355; format: functional, cell-based, Homo sapiens; conditions: Homo sapiens, NCI-H1355;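 note: growth inhibition of human NCI-H1355 cells, read out by a cell viability assay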
# Description: SANGER: Inhibition of human NCI-H1355 cell growth in a cell viability assay.
# [27] = system: NCI-H2122; format: functional, cell-based, Homo sapiens; conditions: Homo sapiens, NCI-H2122;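 note: growth inhibition of the cells, read out with a cell viability assay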
# Description: SANGER: Inhibition of human NCI-H2122 cell growth in a cell viability assay.
# [28] = system: NUGC-3; format: functional, cell-based, Homo sapiens; conditions: Homo sapiens, NUGC-3;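 note: growth inhibition of human NUGC-3 cells, read out with a cell viability assay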
# Description: SANGER: Inhibition of human NUGC-3 cell growth in a cell viability assay.
# [29] = system: OAW-28; format: functional, cell-based, Homo sapiens; conditions: Homo sapiens, OAW-28;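 note: growth inhibition of OAW-28 cells, read out with a cell viability assay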
# Description: SANGER: Inhibition of human OAW-28 cell growth in a cell viability assay.
# [30] = system: P12-Ichikawa; format: functional, cell-based; conditions: Homo sapiens
# [31] = system: RMG-I; format: functional, cell-based, Homo sapiens; conditions: Homo sapiens, RMG-I;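 note: growth inhibition of human RMG-I cells, read out with a cell viability assay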
# Description: SANGER: Inhibition of human RMG-I cell growth in a cell viability assay.
# [32] = system: RO82-W-1; format: functional, cell-based, Homo sapiens; conditions: Homo sapiens, RO82-W-1;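 note: growth inhibition of human RO82-W-1 cells, measured with a cell viability assay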
# Description: SANGER: Inhibition of human RO82-W-1 cell growth in a cell viability assay.
# [33] = system: RPMI-8866; format: functional, cell-based; conditions: Homo sapiens
# Description: SANGER: Inhibition of human RPMI-8866 cell growth in a cell viability assay.
# [34] = system: RS4-11; format: functional, cell-based; conditions: Homo sapiens;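 note: growth inhibition of RS4-11 cells, read out by a cell viability assay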
# Description: SANGER: Inhibition of human RS4-11 cell growth in a cell viability assay.
# [35] = system: SAS; format: functional, cell-based, Homo sapiens; conditions: Homo sapiens, SAS;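 note: growth inhibition of SAS cells, read out with a cell viability assay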
# Description: SANGER: Inhibition of human SAS cell growth in a cell viability assay.
# [36] = system: SBC-1; format: functional, cell-based; conditions: Homo sapiens;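 note: cell viability assay measuring growth inhibition of the SBC-1 cell line, IC50 being the concentration that halves growth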
# Description: SANGER: Inhibition of human SBC-1 cell growth in a cell viability assay.
# [37] = system: SK-OV-3; format: functional, cell-based, Homo sapiens; conditions: Homo sapiens, SK-OV-3;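 note: growth inhibition of SK-OV-3 human cells, read out with a cell viability assay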
# Description: SANGER: Inhibition of human SK-OV-3 cell growth in a cell viability assay.
# [38] = system: SK-UT-1; format: functional, cell-based, Homo sapiens; conditions: Homo sapiens, SK-UT-1;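 note: growth inhibition of SK-UT-1 cells, measured by a cell viability assay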
# Description: SANGER: Inhibition of human SK-UT-1 cell growth in a cell viability assay.
# [39] = system: SW756; format: functional, cell-based, Homo sapiens; conditions: Homo sapiens, SW756;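 note: growth inhibition of human SW756 cells, read out with a cell viability assay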
# Description: SANGER: Inhibition of human SW756 cell growth in a cell viability assay.
# [40] = system: SAOS-2; format: functional, cell-based, Homo sapiens; conditions: Homo sapiens, SAOS-2;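 note: growth inhibition of human Saos-2 cells determined by a cell viability assay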
# Description: SANGER: Inhibition of human Saos-2 cell growth in a cell viability assay.
# [41] = system: A101D; format: functional, cell-based, Homo sapiens; conditions: Homo sapiens, A101D;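 note: growth inhibition of the cell line, measured with a viability assay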
# Description: SANGER: Inhibition of human A101D cell growth in a cell viability assay.
# [42] = system: A4-Fuk; format: functional, cell-based; conditions: Homo sapiens;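 note: growth inhibition of A4-Fuk cells, read out by a cell viability assay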
# Description: SANGER: Inhibition of human A4-Fuk cell growth in a cell viability assay.
# [43] = system: A498; format: functional, cell-based, Homo sapiens; conditions: Homo sapiens, A498;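 note: growth inhibition of human A498 cells, read out with a cell viability assay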
# Description: SANGER: Inhibition of human A498 cell growth in a cell viability assay.
# [44] = system: BCPAP; format: functional, cell-based, Homo sapiens; conditions: Homo sapiens, BCPAP;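 note: growth inhibition of BCPAP cells, read out in a cell viability assay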
# Description: SANGER: Inhibition of human BCPAP cell growth in a cell viability assay.
# [45] = system: BHY; format: functional, cell-based, Homo sapiens; conditions: Homo sapiens, BHY;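 note: cell growth inhibition read out by a viability assay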
# Description: SANGER: Inhibition of human BHY cell growth in a cell viability assay.
# [46] = system: BPH-1; format: functional, cell-based, Homo sapiens; conditions: Homo sapiens, BPH-1;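 note: cell viability assay measuring growth inhibition of human BPH-1 cells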
# Description: SANGER: Inhibition of human BPH-1 cell growth in a cell viability assay.
# [47] = system: CAKI-1; format: functional, cell-based, Homo sapiens; conditions: Homo sapiens, CAKI-1;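 note: growth inhibition of CAKI-1 cells, measured by a cell viability assay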
# Description: SANGER: Inhibition of human CAKI-1 cell growth in a cell viability assay.
# [48] = system: TE-11; format: functional, cell-based, Homo sapiens; conditions: Homo sapiens, TE-11;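 note: growth inhibition of human TE-11 cells, read out by a cell viability assay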
# Description: SANGER: Inhibition of human TE-11 cell growth in a cell viability assay.
# [49] = system: UACC-62; format: functional, cell-based, Homo sapiens; conditions: Homo sapiens, UACC-62;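 note: growth inhibition of human UACC-62 cells, read out by a cell viability assay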
# Description: SANGER: Inhibition of human UACC-62 cell growth in a cell viability assay.
# [50] = system: VA-ES-BJ; format: functional, cell-based, Homo sapiens; conditions: Homo sapiens, VA-ES-BJ;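 note: growth inhibition of the VA-ES-BJ cell line, read out by a cell viability assay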
# Description: SANGER: Inhibition of human VA-ES-BJ cell growth in a cell viability assay.
smiles,measurement,setting,value
Cn1cncc1[C@@](N)(c1ccc(Cl)cc1)c1ccc2c(c1)c(-c1cccc(Cl)c1)cc(=O)n2C [TIPIFARNIB],IC50,[1],13.8 µM
same,IC50,[2],> 16 µM
same,IC50,[3],> 16 µM
same,IC50,[4],1.03 µM
same,IC50,[5],0.72 µM
same,IC50,[6],12.3 µM
same,IC50,[7],8.38 µM
same,IC50,[8],> 16 µM
same,IC50,[9],3.01 µM
same,IC50,[10],11.9 µM
same,IC50,[11],14.3 µM
same,IC50,[12],6.05 µM
same,IC50,[13],2.82 µM
same,IC50,[14],> 16 µM
same,IC50,[15],> 16 µM
same,IC50,[16],> 16 µM
same,IC50,[17],3.37 µM
same,IC50,[18],> 16 µM
same,IC50,[19],> 16 µM
same,IC50,[20],14.5 µM
same,IC50,[21],> 16 µM
same,IC50,[22],5.27 µM
same,IC50,[23],13.7 µM
same,IC50,[24],> 16 µM
same,IC50,[25],> 16 µM
same,IC50,[26],0.974 µM
same,IC50,[27],0.191 µM
same,IC50,[28],4.19 µM
same,IC50,[29],> 16 µM
same,IC50,[30],10.4 µM
same,IC50,[31],> 16 µM
same,IC50,[32],> 16 µM
same,IC50,[33],> 16 µM
same,IC50,[34],1.94 µM
same,IC50,[35],> 16 µM
same,IC50,[36],> 16 µM
same,IC50,[37],2.49 µM
same,IC50,[38],4.86 µM
same,IC50,[39],13.6 µM
same,IC50,[40],> 16 µM
same,IC50,[41],1.87 µM
same,IC50,[42],0.0206 µM
same,IC50,[43],> 16 µM
same,IC50,[44],1.32 µM
same,IC50,[45],1.05 µM
same,IC50,[46],2.24 µM
same,IC50,[47],> 16 µM
same,IC50,[48],1.69 µM
same,IC50,[49],> 16 µM
same,IC50,[50],2.36 µM
COC(=O)CNC(=O)C(=O)OC,IC50,[1],1880 µM
same,IC50,[2],220 µM
same,IC50,[3],> 4000 µM
same,IC50,[4],72.3 µM
same,IC50,[5],16 µM
same,IC50,[6],977 µM
same,IC50,[7],99.9 µM
same,IC50,[8],> 4000 µM
same,IC50,[9],242 µM
same,IC50,[10],1840 µM
same,IC50,[11],900 µM
same,IC50,[12],61.7 µM
same,IC50,[13],573 µM
same,IC50,[14],492 µM
same,IC50,[15],624 µM
same,IC50,[16],> 4000 µM
same,IC50,[17],> 4000 µM
same,IC50,[18],1860 µM
same,IC50,[19],> 4000 µM
same,IC50,[20],257 µM
same,IC50,[21],> 4000 µM
same,IC50,[22],115 µM
same,IC50,[23],881 µM
same,IC50,[24],878 µM
same,IC50,[25],533 µM
same,IC50,[26],274 µM
same,IC50,[27],74.4 µM
same,IC50,[28],1480 µM
same,IC50,[29],2110 µM
same,IC50,[30],62 µM
same,IC50,[31],820 µM
same,IC50,[32],> 4000 µM
same,IC50,[33],> 4000 µM
same,IC50,[34],34.2 µM
same,IC50,[35],237 µM
same,IC50,[36],1410 µM
same,IC50,[37],798 µM
same,IC50,[38],1050 µM
same,IC50,[39],138 µM
same,IC50,[40],193 µM
same,IC50,[41],163 µM
same,IC50,[42],45 µM
same,IC50,[43],663 µM
same,IC50,[44],209 µM
same,IC50,[45],465 µM
same,IC50,[46],276 µM
same,IC50,[47],289 µM
same,IC50,[48],420 µM
same,IC50,[49],> 4000 µM
same,IC50,[50],907 µM
CN(c1ncccc1CNc1nc(Nc2ccc3c(c2)CC(=O)N3)ncc1C(F)(F)F)S(C)(=O)=O [PF-00562271],IC50,[1],> 2.56 µM
same,IC50,[2],> 2.56 µM
same,IC50,[3],> 2.56 µM
same,IC50,[4],> 2.56 µM
same,IC50,[5],> 2.56 µM
same,IC50,[6],> 2.56 µM
same,IC50,[7],> 2.56 µM
same,IC50,[8],> 2.56 µM
same,IC50,[9],> 2.56 µM
same,IC50,[10],> 2.56 µM
same,IC50,[11],> 2.56 µM
same,IC50,[12],> 2.56 µM
same,IC50,[13],> 2.56 µM
same,IC50,[14],> 2.56 µM
same,IC50,[15],> 2.56 µM
same,IC50,[16],> 2.56 µM
same,IC50,[17],2.29 µM
same,IC50,[18],> 2.56 µM
same,IC50,[19],> 2.56 µM
same,IC50,[20],> 2.56 µM
same,IC50,[21],> 2.56 µM
same,IC50,[22],1.8 µM
same,IC50,[23],> 2.56 µM
same,IC50,[24],> 2.56 µM
same,IC50,[25],> 2.56 µM
same,IC50,[26],> 2.56 µM
same,IC50,[27],> 2.56 µM
same,IC50,[28],> 2.56 µM
same,IC50,[29],> 2.56 µM
same,IC50,[30],> 2.56 µM
same,IC50,[31],> 2.56 µM
same,IC50,[32],> 2.56 µM
same,IC50,[33],> 2.56 µM
same,IC50,[34],> 2.56 µM
same,IC50,[35],> 2.56 µM
same,IC50,[36],> 2.56 µM
same,IC50,[37],> 2.56 µM
same,IC50,[38],1.45 µM
same,IC50,[39],> 2.56 µM
same,IC50,[40],> 2.56 µM
same,IC50,[41],> 2.56 µM
same,IC50,[42],> 2.56 µM
same,IC50,[43],> 2.56 µM
same,IC50,[44],1.01 µM
same,IC50,[45],1.66 µM
same,IC50,[46],1.29 µM
same,IC50,[47],> 2.56 µM
same,IC50,[48],1.64 µM
same,IC50,[49],> 2.56 µM
same,IC50,[50],1.9 µM
